From patent US20240066027A1 (DOMAIN THERAPEUTICS, priority 2020, published 2024)
Counter-ions that a name gives are not always drawn.

The compounds below were run against T1, human PAR-2 (hPAR-2) receptor expressed in HEK-293 T cells in an endogenous manner (Homo sapiens, UniProt P55085) (assay: In vitro human PAR-2 functional antagonist activity using calcium assays (Fluo4AM, FLIPR Tetra)). Conditions: HEK-293 T cells stimulated by an EC80 of the 2-Furoyl-LIGRLO-NH2 peptide after 10 min incubation with compound; 20 concentrations, duplicate, two independent experiments.
T1 construct: human PAR-2 (hPAR-2) receptor expressed in HEK-293 T cells in an endogenous manner; endogenous in cells; host or cells: HEK-293 T cells
T1 sequence (P55085 26-397): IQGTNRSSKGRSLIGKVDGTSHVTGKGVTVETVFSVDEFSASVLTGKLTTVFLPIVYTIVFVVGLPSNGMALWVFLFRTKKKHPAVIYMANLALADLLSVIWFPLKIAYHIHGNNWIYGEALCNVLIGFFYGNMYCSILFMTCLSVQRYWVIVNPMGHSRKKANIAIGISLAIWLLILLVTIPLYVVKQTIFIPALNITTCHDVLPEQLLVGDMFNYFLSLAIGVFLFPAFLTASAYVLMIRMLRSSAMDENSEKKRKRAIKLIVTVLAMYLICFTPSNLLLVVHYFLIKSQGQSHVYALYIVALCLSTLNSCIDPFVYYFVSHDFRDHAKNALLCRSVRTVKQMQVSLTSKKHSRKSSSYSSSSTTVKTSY
Format: cell-based
How it was run: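 Antagonist activity was taken as the decrease in the calcium response to an EC80 of 2-Furoyl-LIGRLO-NH2, measured over 5 min. The agonist was added after a 10 min compound-alone step on the same plate. The HEK-293 T cells express PAR-2 endogenously and were loaded with 1 μM Fluo4AM. Signals were referenced to buffer and EC80-alone controls.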
For `CCn1cc(-c2ccc(Cl)c(F)c2)c2ccc(C(=O)N3CCN(c4cc(C)c(C(=O)O)c(C)n4)CC3(C)C)nc21` [Example 129, 6-(4-(3-(4-chloro-3-fluorophenyl)-1-ethyl-1H-pyrrolo[2,3-b]pyridine-6-carbonyl)-3,3-dimethylpiperazin-1-yl)-2,4-dimethylnicotinic acid], the IC50 was less than 20 nM.
Work on `Cc1cc(N2CCN(C(=O)c3ccc4c(-c5ccc(Cl)c(F)c5)cn(C(C)(C)C)c4n3)[C@H](C)C2)nc(C)c1C(=O)O` [Example 130, (R)-6-(4-(1-(tert-butyl)-3-(4-chloro-3-fluorophenyl)-1H-pyrrolo[2,3-b]pyridine-6-carbonyl)-3-methylpiperazin-1-yl)-2,4-dimethylnicotinic acid] yielded an IC50 of 20 to 10000 nM.
For `Cc1cc(N2CCN(C(=O)c3ccc4c(-c5ccc(Cl)c(F)c5)cn(C(C)(C)c5ccccn5)c4n3)C(C)(C)C2)nc(C)c1C(=O)O` [Example 131, 6-(4-(3-(4-chloro-3-fluorophenyl)-1-(2-(pyridin-2-yl)propan-2-yl)-1H-pyrrolo[2,3-b]pyridine-6-carbonyl)-3,3-dimethylpiperazin-1-yl)-2,4-dimethylnicotinic acid], the IC50 was less than 20 nM.
`COCC1CN(C(=O)c2ccc3c(-c4ccc(Cl)c(F)c4)cn(C(C)(C)C)c3n2)CCN1c1cc(C)c(C(=O)O)c(C)n1` (stereo not shown) [Example 132, 6-(4-(1-(tert-butyl)-3-(4-chloro-3-fluorophenyl)-1H-pyrrolo[2,3-b]pyridine-6-carbonyl)-2-(methoxymethyl)piperazin-1-yl)-2,4-dimethyinicotinic acid] was tested, and the IC50 was 20 to 10000 nM.
`Cc1cc(N2CCN(C(=O)c3ccc4c(-c5ccc(Cl)c(F)c5)cn(CC(=O)O)c4n3)C(C)(C)C2)nc(C)c1C(=O)O` [Example 133, 6-(4-(1-(carboxymethyl)-3-(4-chloro-3-fluorophenyl)-1H-pyrrolo[2,3-b]pyridine-6-carbonyl)-3,3-dimethylpiperazin-1-yl)-2,4-dimethylnicotinic acid] gave an IC50 greater than 10000 nM.
Work on `COCCn1cc(-c2ccc(Cl)c(F)c2)c2ccc(C(=O)N3CCN(c4cc(C)c(C(=O)O)c(C)n4)CC3(C)C)nc21` [Example 134, 6-(4-(3-(4-chloro-3-fluorophenyl)-1-(2-methoxyethyl)-1H-pyrrolo[2,3-b]pyridine-6-carbonyl)-3,3-dimethylpiperazin-1-yl)-2,4-dimethyinicotinic acid] yielded an IC50 of less than 20 nM.
With `Cc1cc(N2CCN(C(=O)c3ccc4c(-c5ccc(Cl)c(F)c5)cn(Cc5cccnc5)c4n3)C(C)(C)C2)nc(C)c1C(=O)O` [Example 135, 6-(4-(3-(4-chloro-3-fluorophenyl)-1-(pyridin-3-ylmethyl)-1H-pyrrolo[2,3-b]pyridine-6-carbonyl)-3,3-dimethylpiperazin-1-yl)-2,4-dimethylnicotinic acid hydrochloride] the IC50 was 20 to 10000 nM.
Compound `COC[C@H](C)n1cc(-c2ccc(Cl)c(F)c2)c2ccc(C(=O)N3CCN(c4cc(C)c(C(=O)O)c(C)n4)CC3(C)C)nc21` [Example 136, (S)-6-(4-(3-(4-chloro-3-fluorophenyl)-1-(1-methoxypropan-2-yl)-1H-pyrrolo[2,3-b]pyridine-6-carbonyl)-3,3-dimethylpiperazin-1-yl)-2,4-dimethylnicotinic acid] has an IC50 of less than 20 nM.
For `CC1(C)CN(c2ccc(C(=O)O)cn2)CCN1C(=O)c1ccc2c(-c3ccc(Cl)c(F)c3)cn(C(C)(C)C)c2n1` [Example 137, 6-(4-(1-(tert-butyl)-3-(4-chloro-3-fluorophenyl)-1H-pyrrolo[2,3-b]pyridine-6-carbonyl)-3,3-dimethylpiperazin-1-yl)nicotinic acid], the IC50 was less than 20 nM.
Work on `CC1(C)CN(c2ccc(C(N)=O)cn2)CCN1C(=O)c1ccc2c(-c3ccc(Cl)c(F)c3)cn(C(C)(C)C)c2n1` [Example 138, 6-(4-(1-(tert-butyl)-3-(4-chloro-3-fluorophenyl)-1H-pyrrolo[2,3-b]pyridine-6-carbonyl)-3,3-dimethylpiperazin-1-yl)nicotinamide] yielded an IC50 of less than 20 nM.
